Assays:
Type in all cases: in vivo
[1] = test system: fall armyworm larvae (Spodoptera frugiperda); assay: Spodoptera frugiperda spray test (maize leaf sections); settings: 168 h
Description: Spodoptera frugiperda—Spray Test • Solvent: 78.0 parts by weight acetone • 1.5 parts by weight dimethylformamide • Emulsifier: alkylarylpolyglycol ether
(§1) To produce a suitable preparation of active compound, 1 part by weight of active compound is mixed with the stated amount of solvents and is diluted with water, containing an emulsifier concentration of 1000 ppm, to the desired concentration. Further test concentrations are prepared by dilution with emulsifier containing water.
Maize (Zea mays) leaf sections are sprayed with a preparation of the active ingredient of the desired concentration. Once dry, the leaf sections are infested with fall armyworm larvae (Spodoptera frugiperda).
After 7 days mortality in % is determined. 100% means all caterpillars have been killed and 0% means none of the caterpillars have been killed.

[2] = test system: larvae of the banded cucumber beetle (Diabrotica balteata); assay: Diabrotica balteata spray test; settings: 168 h, 100 g/ha (=32 μg/well), wheat seeds, after 7 days, read-out: efficacy (seedling growth)
Description: Diabrotica Balteata—Spray Test
• Solvent: 78.0 parts by weight of acetone • 1.5 parts by weight of dimethylformamide • Emulsifier: alkylarylpolyglycol ether
Further test concentrations are prepared by dilution with emulsifier containing water.
Soaked wheat seeds (Triticum aestivum) are placed in a multiple well plate filled with agar and some water and are incubated for 1 day to germinate (5 seeds per well). The germinated wheat seeds are sprayed with a test solution containing the desired concentration of the active ingredient. Afterwards each unit is infected with 10-20 larvae of the banded cucumber beetle (Diabrotica balteata).
After 7 days efficacy in % is determined.

[3] = test system: larvae of the southern green stink bug (Nezara viridula); assay: Nezara viridula spray test; settings: in Hordeum vulgare, 96 h
Description: Nezara viridula—Spray Test • Solvent: 78.0 parts by weight of acetone • 1.5 parts by weight of dimethylformamide • Emulsifier: alkylarylpolyglycol ether
as §1, with “solvent,” for “solvents”, “and the concentrate” for “and”
Barley plants (Hordeum vulgare) are sprayed with a test solution containing the desired concentration of the active ingredient and are infested with larvae of the southern green stink bug (Nezara viridula).
After 4 days mortality in % is determined. 100% means all the stink bugs have been killed; 0% means none of the stink bugs have been killed.

## C[C@H](NC(=O)c1cc(OC(F)F)cc(S(=O)(=O)C2CC2)c1)c1nc(C2CC2)nn1-c1ncc(C#N)s1 [I-133]
[1]
  mortality at 100 g/ha: 100%
[2]
  pest or weed control at 32 µg/disc, 100 g/ha: 100%

## C[C@H](NC(=O)c1cc(C#N)cc(OC(F)(F)F)c1)c1ncnn1-c1ncc(C#N)s1 [I-135]
[1]
  mortality at 100 g/ha: 100%
[2]
  pest or weed control at 32 µg/disc, 100 g/ha: 100%

## C[C@H](NC(=O)c1cc(Cl)nc(OC(F)(F)F)c1)c1ncnn1-c1ncc(C#N)s1 [I-139]
[1]
  mortality at 100 g/ha: 100%
[2]
  pest or weed control at 32 µg/disc, 100 g/ha: 100%

## CNC(=O)c1cnc(-n2ncnc2[C@H](C)NC(=O)c2cc(Cl)cc(S(=O)(=O)c3ccc(Cl)cc3)c2)s1 [I-140]
[1]
  mortality at 100 g/ha: 100%
[2]
  pest or weed control at 32 µg/disc, 100 g/ha: 100%

## C[C@H](NC(=O)c1cc(Cl)cc(S(=O)(=O)c2ccc(Cl)cc2)c1)c1ncnn1-c1ncc(C(=O)N(C)C)s1 [I-141]
[1]
  mortality at 100 g/ha: 100%

## C[C@H](NC(=O)c1cc(Cl)cc(S(=O)(=O)c2ccc(Cl)cc2)c1)c1ncnn1-c1ncc(C#N)s1 [I-143]
[1]
  mortality at 100 g/ha: 100%
[2]
  pest or weed control at 32 µg/disc, 100 g/ha: 80%

## C[C@H](NC(=O)c1cc(OC(F)(F)F)cc(OC(F)(F)F)c1)c1ncnn1-c1ncc(C#N)s1 [I-144]
[1]
  mortality at 100 g/ha: 100%
[2]
  pest or weed control at 32 µg/disc, 100 g/ha: 100%

## C[C@H](NC(=O)c1cc(Br)cc(OC(F)(F)F)c1)c1ncnn1-c1ncc(C(=O)N(C)C2CC2)s1 [I-145]
[1]
  mortality at 100 g/ha: 100%
[2]
  pest or weed control at 32 µg/disc, 100 g/ha: 100%

## C[C@H](NC(=O)c1cc(Cl)cc(S(=O)(=O)C(F)F)c1)c1ncnn1-c1ncc(C(=O)N(C)C2CC2)s1 [I-146]
[1]
  mortality at 100 g/ha: 100%
[2]
  pest or weed control at 32 µg/disc, 100 g/ha: 100%

## C[C@H](NC(=O)c1cc(OC(F)(F)F)cc(S(C)(=O)=O)c1)c1ncnn1-c1ncc(C(=O)N(C)C2CC2)s1 [I-147]
[1]
  mortality at 100 g/ha: 100%
[2]
  pest or weed control at 32 µg/disc, 100 g/ha: 100%

## C[C@H](NC(=O)c1cc(Cl)cc(S(=O)(=O)c2ccc(Cl)cc2)c1)c1ncnn1-c1ncc(C(=O)N(C)C2CC2)s1 [I-149]
[1]
  mortality at 100 g/ha: 100%
[2]
  pest or weed control at 32 µg/disc, 100 g/ha: 100%

## C[C@H](NC(=O)c1cc(C(F)F)cc(C(F)F)c1)c1ncnn1-c1ncc(C(=O)N(C)C2CC2)s1 [I-150]
[1]
  mortality at 100 g/ha: 100%
[2]
  pest or weed control at 32 µg/disc, 100 g/ha: 100%

## C[C@H](NC(=O)c1cc(C(F)(F)F)cc(C(F)(F)F)c1)c1ncnn1-c1ncc(C(=O)N(C)C2CC2)s1 [I-151]
[1]
  mortality at 100 g/ha: 100%
[2]
  pest or weed control at 32 µg/disc, 100 g/ha: 100%

## C[C@H](NC(=O)c1cc(Cl)cc(S(=O)(=O)C(F)(F)F)c1)c1ncnn1-c1ncc(C(=O)N(C)C2CC2)s1 [I-153]
[1]
  mortality at 100 g/ha: 100%
[2]
  pest or weed control at 32 µg/disc, 100 g/ha: 100%

## C[C@H](NC(=O)c1cc(C(F)(F)F)cc(C(F)(F)F)c1)c1nc(C2CC2)nn1-c1ncc(C(=O)N(C)C)s1 [I-156]
[1]
  mortality at 100 g/ha: 100%
[2]
  pest or weed control at 32 µg/disc, 100 g/ha: 100%

## C[C@H](NC(=O)c1cc(OC(F)(F)F)cc(C2CC2)c1)c1nc(C2CC2)nn1-c1ncc(C(=O)N(C)C)s1 [I-157, 2-(3-cyclopropyl-5-{(1S)-1-[3-cyclopropyl-5-(trifluoromethoxy)benzamido]ethyl}-1H-1,2,4-triazol-1-yl)-N,N-dimethyl-1,3-thiazole-5-carboxamide]
[1]
  mortality at 100 g/ha: 100%
[2]
  pest or weed control at 32 µg/disc, 100 g/ha: 100%

## Cc1nc([C@H](C)NC(=O)c2cc(OC(F)(F)F)cc(S(C)(=O)=O)c2)n(-c2ncc(C#N)s2)n1 [I-159]
[1]
  mortality at 100 g/ha: 100%
[2]
  pest or weed control at 32 µg/disc, 100 g/ha: 100%

## Cc1nc([C@H](C)NC(=O)c2cc(Cl)cc(S(=O)(=O)C(F)(F)F)c2)n(-c2ncc(C#N)s2)n1 [I-160]
[1]
  mortality at 100 g/ha: 100%
[2]
  pest or weed control at 32 µg/disc, 100 g/ha: 100%

## Cc1nc([C@H](C)NC(=O)c2cc(S(=O)(=O)C(F)(F)F)cc(S(=O)(=O)C(F)(F)F)c2)n(-c2ncc(C#N)s2)n1 [I-162]
[1]
  mortality at 100 g/ha: 100%
[2]
  pest or weed control at 32 µg/disc, 100 g/ha: 100%

## Cc1nc([C@H](C)NC(=O)c2cc(Cl)cc(S(=O)(=O)C3CC3)c2)n(-c2ncc(C#N)s2)n1 [I-163]
[1]
  mortality at 100 g/ha: 100%
[2]
  pest or weed control at 32 µg/disc, 100 g/ha: 100%

## Cc1nc([C@H](C)NC(=O)c2cc(OC(F)(F)F)cc(S(=O)(=O)C3CC3)c2)n(-c2ncc(C#N)s2)n1 [I-164]
[1]
  mortality at 100 g/ha: 100%
[2]
  pest or weed control at 32 µg/disc, 100 g/ha: 100%

## C[C@H](NC(=O)c1cncc(OC(F)(F)F)c1)c1ncnn1-c1ncc(C#N)s1 [I-174]
[3]
  mortality at 500 g/ha: 100%

## COc1nc(C(C)NC(=O)c2cc(OC(F)(F)F)cc(S(=O)(=O)C3CC3)c2)n(-c2ncc(C#N)s2)n1 (stereo not shown) [I-200, N-{1-[1-(5-cyano-1,3-thiazol-2-yl)-3-methoxy-1H-1,2,4-triazol-5-yl]ethyl}-3-(cyclopropylsulfonyl)-5-(trifluoromethoxy)benzamide]
[2]
  pest or weed control at 32 µg/disc, 100 g/ha: 100%

— patent US20230065953A1, “NOVEL HETEROARYL-TRIAZOLE COMPOUNDS AS PESTICIDES” (Bayer Aktiengesellschaft, priority 2019, published 2023)
